Read-outs that look alike come from different tables or passages of the source.
Assays:
Acute toxicity on rats = format: in vivo; conditions: for LD50: rats
Source text: (§1) Toxicities of TN and TA will now be described.

Acute toxicity on mice = format: in vivo
Source text: as §1

[1] = Subacute and chronic toxicities; format: in vivo; conditions: rats 100 to 1000 mg/Kg and beagles 100 mg/Kg daily, 3 or 6 months
Procedure: (B) Subacute and Chronic Toxicities:
TN and TA were separately administered to rats and beagles at daily doses of 100 to 1000 mg/Kg and 100 mg/Kg, respectively, continuously for 3 or 6 months.

[2] = Teratogenetic property test; format: in vivo, pregnant mice or pregnant rats; conditions: orally, 100 to 1200 mg/Kg
Source text: (C) Teratogenetic Property Test:

[3] = Hypotensive effect on experimental hypertension caused by DOCA; format: in vivo, male wistar rats
Procedure: (A) Hypotensive effect on experimental hypertension caused by administration of desoxycorticosterone (hereinafter referred to as "DOCA"):
Right kidneys were removed from 6-week-old male wistar rats, and a 1% aqueous solution of sodium chloride was given as drinking water and 12.5 mg/Kg of DOCA was intramuscularly injected every week. The change of the blood pressure was examined over a period of 6 weeks.
48 rats, each having one kidney removed, were divided into 6 groups, each consisting of 8 rats, and each group was placed in a cage. With respect to each group, a gum arabic solution was administered to 2 rats as non-administered control animals. 20 mg/Kg of TN was administered once a day to each of two rats among the remaining 6 rats, and 100 mg/Kg of TN was administered once a day to each of two rats among the remaining 4 rats. 88 mg/Kg of TA was administered once a day to each of the remaining two rats. TN and TA were administered in the form of a suspension in gum arabic. The blood pressure was measured by a Shimazu type systolic pressure continuous recording apparatus detecting pulse waves of rats taken in a thermostat fixed box maintained at 30° C.

[4] = Experiment on young SHR (rats of spontaneous hypertension); format: in vivo, rats (7-week-old female SHR); conditions: 88 mg/kg TA
Procedure: Experiments were conducted by using two classes of rats of spontaneous hypertension (hereinafter referred to as "SHR"; provided by Nippon Rat K.K.) differing in the age. In the first experiment, 9-month-old chronic […] SHR (hereinafter referred to as "old SHR"), and in the second experiment, 7-week-old SHR in which hypertension was advancing (hereinafter referred to as "young SHR") was used.
(B) Experiment on Young SHR:
72 of 7-week-old female SHR (having a body weight of 130 to 175 g) were divided into 9 cages, each consisting of 8 rats. Service water was given as drinking water to rats of two cages among these 9 cages, and these rats were compared with other rats which were given a 1% aqueous solution of sodium chloride as drinking water. In each of the […] cages of rats to which the sodium chloride solution was given, no agent was administered to 2 of 8 rats, 20 mg/Kg of TN was administered to another 2 rats, 100 mg/Kg of TN was administered to still another 2 rats, and 88 mg/Kg of TA was administered to the remaining 2 rats.
After 2 weeks' feeding with the sodium chloride solution, administration was conducted once a day. Within 2 weeks from the start of administration,3 rats in the Control (non-administered) group, one rat in the 20 mg/Kg TN administered group, 3 rats in the 100 mg/Kg TN administered group, 3 rats in the 88 mg/Kg TA administered group and 4 rats in the service water given group were dead. In view of the body weight decrease and the snivel secretion and from the results of autopsy, it was judged that each of them died of pneumonia. The rats that died prior to initiation of the administration were not taken in account in evaluating the experimental results.

[5] = cited from earlier work

Which “animals killed in acute toxicity test” value (Acute toxicity on rats; mice and rats, maximum amount that can be administered) does the source give for `CC(=O)Oc1c(C)c(C)c2c(c1C)CCC(C)(CCCC(C)CCCC(C)CCCC(C)C)O2` (racemic) [TA, dl-α-tocopheryl acetate] here?
Its value is “no test animal was killed”.

What about the LD50 (Acute toxicity on rats; rat, in vivo, im, I.M., male, read-out: LD50) of the same molecule?
Its LD50 is over 10000 mg/kg.

And the LD50 (Acute toxicity on rats; rat, in vivo, ip, I.P., male, read-out: LD50)?
The LD50 was over 2000 mg/kg.

And the LD50 (Acute toxicity on rats; rat, in vivo, iv, I.V., male, read-out: LD50)?
Its LD50 is over 250 mg/kg.

What about the LD50 (Acute toxicity on rats; rat, in vivo, po, P.O., male, read-out: LD50) of the same molecule?
Its LD50 is over 15000 mg/kg.

What about the LD50 (Acute toxicity on rats; rat, in vivo, sc, S.C., male, read-out: LD50) of the same molecule?
Its LD50 is over 15000 mg/kg.

And the LD50 (Acute toxicity on rats; I.M., female)?
Its LD50 is over 10000 mg/kg.

And the LD50 (Acute toxicity on rats; I.V., female)?
Its LD50 is over 250 mg/kg.

What about the LD50 (Acute toxicity on rats; P.O., female) of the same molecule?
The LD50 was over 15000 mg/kg.

What about the LD50 (Acute toxicity on rats; S.C., female) of the same molecule?
Its LD50 is over 15000 mg/kg.

What about the LD50 (Acute toxicity on mice; I.M., female) of the same molecule?
The LD50 was over 15000 mg/kg.

What about the LD50 (Acute toxicity on mice; I.V., female) of the same molecule?
Its LD50 is over 1000 mg/kg.

And the LD50 (Acute toxicity on mice; P.O., female)?
Its LD50 is over 20000 mg/kg.

What about the LD50 (Acute toxicity on mice; S.C., female) of the same molecule?
Its LD50 is over 20000 mg/kg.

And the LD50 (Acute toxicity on mice; mouse, in vivo, im, I.M., male, read-out: LD50)?
The LD50 was over 15000 mg/kg.

And the LD50 (Acute toxicity on mice; mouse, in vivo, ip, I.P., male, read-out: LD50)?
Its LD50 is over 4000 mg/kg.

And the LD50 (Acute toxicity on mice; mouse, in vivo, iv, I.V., male, read-out: LD50)?
Its LD50 is over 1000 mg/kg.

And the LD50 (Acute toxicity on mice; mouse, in vivo, po, P.O., male, read-out: LD50)?
Its LD50 is over 20000 mg/kg.

And the LD50 (Acute toxicity on mice; mouse, in vivo, sc, S.C., male, read-out: LD50)?
Its LD50 is over 20000 mg/kg.

And the deaths [1]?
The deaths was “no deaths”.

What about the “haematological, haemetobiological and histological surveys” value [1] of the same molecule?
The value was “no manifestation of the toxicity was observed”.

What about the “inhibition of the body weight” value [1] of the same molecule?
Its value is “inhibition of the body weight was not observed”.

What about the “influences on mother animals, embryos and newborn babies” value [2] of the same molecule?
The value was “no influences were observed”.

What about the teratogenetic property [2] of the same molecule?
Its teratogenetic property is “no teratogenetic property”.

What about the “number of rats with blood pressure elevated to 170 mm Hg or higher” value ([3]; 88 mg/kg of TA once a day, among 12 rats (control 9 among 11)) of the same molecule?
The value was 4 rats.

And the “hypotensive effect, overall conclusion from pharmacological tests on animals” value ([3]; DOCA rats, old SHR, young SHR)?
The value was “have a hypotensive effect”.

And the “dead rats within 6 weeks from the start of the administration” value ([4]; among 11 rats, control 5 among 11)?
The value was 3 rats.

What about the “dead rats within 2 weeks from the start of administration” value ([4]; judged pneumonia, control 3) of the same molecule?
The value was 3 rats.

For `NNc1nncc2ccccc12` [Hydralazine], which “effect on the heart” value ([5]; prior art) is on record?
Its value is “increases the amount of blood fed to the heart and the pulse frequency and thus increases the load on the heart”.

And the hypotensive activity ([5]; prior art)?
The hypotensive activity was “high hypotensive activity”.

What about the undesirable side effects ([5]; prior art) of the same molecule?
The undesirable side effects was “multiple arthritis resembling rheumatic arthritis and lupus erythematosus”.

Which undesirable side effects ([5]; prior art) does the source give for `COC(=O)[C@H]1[C@H]2C[C@@H]3c4[nH]c5cc(OC)ccc5c4CCN3C[C@H]2C[C@@H](OC(=O)c2cc(OC)c(OC)c(OC)c2)[C@@H]1OC` [Reserpine] here?
The undesirable side effects was “inhibition of the central nervous system, such as asthenic feeling”.

Which undesirable side effects ([5]; in vivo) does the source give for `NS(=O)(=O)c1cc2c(cc1Cl)NCNS2(=O)=O` [hydrochlorothiazide] here?
The undesirable side effects was “hypokalemia, hypercirycemia and manifestation of latent diabetes”.

What about the hypotensive activity ([5]; prior art) of the same molecule?
The hypotensive activity was “moderate hypotensive activity”.

Which hypotensive activity ([5]; prior art) does the source give for `C[C@](N)(Cc1ccc(O)c(O)c1)C(=O)O` [l-α-Methyl Dopa] here?
Its hypotensive activity is “high hypotensive activity”.

What about the undesirable side effects ([5]; prior art) of the same molecule?
The undesirable side effects was “mammary hypertrophy, paraesthesia, nightmare and Parkisonism”.

With `CC(COc1ccccc1)N(CCCl)Cc1ccccc1` (stereo not shown) [phenoxybenzamine] as the molecule, how does the undesirable side effects ([5]; prior art) read?
Its undesirable side effects is “orthostatic hypotensive asthenia and tachycardia”.

Source: patent US4088778A, “Method for the treatment of hypertension” (priority 1975, dated 1978)
